{"source": "patent US6984729B1", "about": "“Oligonucleotides specific for hepatitis B virus” (priority 1995, dated 2006)", "key": {"[1]": {"tested_on": "internally 32P-labelled HBV precore-core RNA (epsilon region)", "assay": "RNase H cleavage of HBV precore-core RNA with noncontiguous oligonucleotides targeted to the epsilon region", "assay_type": "biochemical, hepatitis B virus", "settings": "for total RNA cleavage by RNase H: 10+10 and 12+12 noncontiguous oligonucleotides versus mixtures of arms, FIGS. 5A, 6A; for double cleavage (twice cleaved product) by RNase H on both sides of the epsilon stem: FIGS. 5B, 6B", "method": "To determine whether an oligonucleotide of the invention is capable of successfully hybridizing to its target, an RNase H assay was performed (Frank et al. (1993) Proc. Int. Conf. Nucleic Acid Med. Applns. 1:4.14(abstract)). This assay is useful when a region of at least four contiguous nucleotides of the oligonucleotide is DNA and the target is RNA. Hybridization of the DNA portion of the oligonucleotide to the RNA target is identified by cleavage at that site by RNase H.\nNoncontiguous oligonucleotides targeted to the HBV epsilon region have also been prepared and tested. The epsilon region is characterized by an RNA stem-loop structure consisting primarily of double-stranded RNA with a single-stranded bulge and loop of 6 bases each (FIG. 3). […] The ability of RNase H to cleave an RNA in this manner inflicts greater damage on the RNA than normal antisense oligodeoxynucleotides, while allowing the targeting of a biologically important region that is otherwise difficult to target due to its double-stranded nature.\nBased on this information, several oligodeoxynucleotide phosphorothioates were prepared to test the hypothesis that hybridization by mode B is preferred when spanning the base of an RNA stem. 20mer and 24mer noncontiguous oligonucleotides (Table 2) were prepared as well as the 10mers and 12mers corresponding to the “arms” of the noncontiguous sequences.\nIf a single oligodeoxynucleotide were able to bind across the base of epsilon to sequences on either side of the stem, RNase H might cleave both sites and effectively cut out the epsilon stem-loop from the RNA. […] The 12+12 noncontiguous phosphorothioates show the same ability to bind across the base of the RNA stem. […] Double cleavage of the transcript in the presence of the mixture of 12mer arms (HBV71+HBV72) was much slower (FIG. 6B).\nWhen oligonucleotides hybridizing via mode B were lengthened to allow strand invasion of the RNA stem, disruption of the stem-loop structure occurred. Oligonucleotides HBV89 (SEQ ID NO:39), HBV90 (SEQ ID NO:40), and HBV91 (SEQ ID NO:41) bind across the base of epsilon via mode B and strand invade on either the 5 side (HBV89) or the 3′ side (HBV90 and HBV91) of the RNA stem. HBV89M is an extension of HBV64M with ten 2′-O-methyl RNA residues invading the RNA stem on the 5′-side. Addition of these strand invading nucleotides increased the cleavage efficiency from 23% to 32% at 100 nM oligonucleotide.\nUniformally ^32P-labelled RNA was prepared from 1 μg linearized plasmid using the Ambion MEGAscript In Vitro Transcription Kit (Ambion, Inc., Austin, Tex.) according to the manufacturers' instructions, using [α-^32p] CTP as the radioactive label. The RNA was treated with RNase-free DNase I (Ambion, Inc., Austin, Tex.), extracted with phenol:chloroform: isoamyl alcohol (25:24:1) and purified from nucleotides and nucleosides on a G-50 Sephadex spin column (Boehringer-Mannheim, Indianapolis, Ind., or Pharmacia, Uppsala, Sweden).\nIn 9 μl 1× RNase H buffer (40 mM Tris-HCl pH 7.4, 4 mM MgCl2, 1 mM DTT), 20–100 nM labelled RNA and 100 nM oligonucleotides were preincubated for 15 min at 37° C. 1 μl RNase H (1 U/μl) was added, and the reaction was incubated at 37° C. for 10 min. The reactions were quenched and analyzed as described above.\nQuantitation of the cleavage products was performed using software supplied with the Phosphorimager (Molecular Dynamics, Sunnyvale, Calif., or Bio-Rad Laboratories, Hercules, Calif.). “Counts” were determined by drawing a box around the band of interest and subtracting the background determined with a box drawn nearby. Counts in a product band were compared to total counts in the lane above that band to determine % cleavage."}, "[2]": {"tested_on": "HBV genomes in the supernatants from HepG2.2.15 cells", "assay": "Kinetic PCR HBV anti-viral assay on supernatants from HepG2.2.15 cells", "assay_type": "cell-based, hepatitis B virus", "settings": "copy number of HBV genomes in HepG2.2.15 supernatants, day 10", "method": "In addition to Southern hybridizations, kinetic PCR was performed to assay the supernatants from the HepG2.2.15 cells. This procedure was carried out as described by Higuchi et al. (Biotechnol. (1993) 11:1026–1030). All PCRs were carried out with two sets of external controls which consisted of a dilution series of a known concentration of plasmid DNA that contained the HBV core gene amplified with the same primer set. These controls generated a standard curve that was used to calculate the copy number of HBV genomes in the supernatants from cells exposed to the various dilutions of compound.\nThe anti-viral assay was performed using HepG 2.2.15 cells (Sells et al. ([…]) Proc. Natl. Acad. Sci. (USA) 84:1005–1009) seeded at a density of 1×10^5 per well in 24 well plates. The cells were grown to confluence and allowed to stabilize for 2–3 days in RPMI media (supplemented with 10% fetal calf serum (FCS), 2 mM glutamine and penstrep (Life Technologies Ltd., Paisley, Scotland) prior to the addition of the oligonucleotide (defined as day 0). Six dilutions (10, 5, 1, 0.5, 0.1, and 0 μM) were set up in duplicate for each of the antisense oligonucleotides. In each assay run, the nucleoside analog, β-L-(2R,5S)-1,3 oxathiolanyl cytosine (3TC) (Glaxo, Greenford, U.K.) was included as positive control at 0.5, 0.1, 0.075, 0.05, and 0.01 and 0 μM in duplicate. Oligonucleotide was added to 1 ml of RPMI media (supplemented with 3% FCS, 2 mM glutamine and penstrep) at each of the indicated dilutions. At days 2, 4 and 7, the old media was removed and replaced with fresh media containing compound. At day 10, the supernatants were harvested, clarified by low speed centrifugation, prior to the addition of Triton X100 (Sigma, St. Louis, Mo.) and tri-n-butyl phosphate to give a final concentration of 1%. The samples were then heated to 70° C. for 20 minutes to disrupt the viral particles.\nFollowing this treatment, the viral particles were subject to analysis by kinetic PCR. The primers RJ407 (SEQ ID NO:51) and RJ431 (SEQ ID NO:52) were used to detect a 205 bp fragment of the core gene. Kinetic PCR was performed essentially as described by Higuchi et al. (Biotechnol. (1993) 11:1026–1030). Briefly, the PCR reactions were set up under standard conditions except that ethidium bromide was included at a concentration of 4 μg/ml. […] A kinetic PCR analysis was performed by plotting the average intensity of fluorescence from each PCR sample after each annealing/extension cycle against the cycle number. The original template concentration can be calculated by utilizing a standard fluorescence curve generated by templates of known concentration."}, "[3]": {"tested_on": "HBVpol RNA", "assay": "In vitro translation assay (wheat germ translation system)", "assay_type": "biochemical, hepatitis B virus", "settings": "FIG. 8", "method": "The oligonucleotides of the invention can be assayed for antisense inhibitory activity with a number of different assays. For example, an in vitro translation assay can be used to test antisense activity in which an antisense oligonucleotide can inhibit synthesis of a protein product encoded by the targeted mRNA. In such an assay, oligonucleotides targeted to the polymerase gene were tested against both target and an unrelated control RNA in the wheat germ translation system. […] Results are represented graphically in FIG. 7.\nThis assay was also used to compare the activity of mismatched oligonucleotides to the activity of the parent oligonucleotide. Four such oligonucleotides, all derivatives of HBVpol-2 (HBVpol-A, SEQ ID NO:46; HBVpol-B, SEQ ID NO:47; HBVpol-C, SEQ ID NO:48, HBVpol-D, SEQ ID NO:49) (Table 1) were synthesized and tested in the assay.\nThe 5′ end of the polymerase gene (pol) open reading frame, nt 2292–2942, was amplified by the PCR from the full length HBV clone pCH3/3097 (Bartenschlager et al. (1992) Nucleic Acids Res. 20:195–202). The 5′ amplification primer AS10 (SEQ ID NO:55) encoded an EcoRI site. The 3′ amplification primer AS11 (SEQ ID NO:56) both encoded a PstI site and introduced a stop codon in the place of a leucine codon at position 2942–2944. The PCR product was digested with EcoRI and PstI (Promega, Madison, Wis.) and inserted into similarly digested plasmid vector pGEM-3z (Promega, Madison, Wis.). The resulting recombinant plasmid was recut with PstI and an oligonucleot-ide dA:dT(30) linker was introduced.\nB. In vitro Transcription of RNA pHBVpol and a second plasmid pHSVProt were linearized with HindIII (Promega, Madison, Wis.), RNA was in vitro transcribed from each construct using T7 Cap-Scribe reagents (Boehringer-Mannheim, Indianapolis, Ind.) employed as per the manufacturer's instructions. The quantity and quality of the RNA's was assessed on a 2% agarose/formaldehyde gel. The control HSVProt RNA was arbitrarily diluted 10 fold to 200 ng/μl and stored in 20 μl aliquots at −80° C.\nIn this series of experiments only phosphodiester (PO) oligonucleotides were used. 5 μM, 2.5 μM, and 1.25 μM stocks of each of HBVpol-1, HBVpol-2, HBVpol-3, and randomer were made up and stored frozen. Reactions were set up using 100 ng HBVpol and 200 ng pHSVprot. The volume of water in the translation master mix was reduced to allow the addition of 1 μl of each dilution of each oligonucleotide to the reactions whilst maintaining the final volume at 12 μl. This corresponds to final oligonucleotide concentrations of approximately 400 nM, 200 nM, and 100 nM."}}, "note": "Strand notation (5' to 3'): a small letter for the sugar, then the base; units joined by * are phosphorothioate-linked, units joined directly phosphodiester-linked; [ ] holds rarer units or linkages, { } end groups; capitals alone tell only the bases. d = 2'-deoxy (DNA)", "data": [{"substance": "AGAGATGATTTAAGGGTCGATGTCCATGCC (chemistry not given here) [HBV90]", "values": [{"measurement": "strand invasion of the RNA stem evidenced by RNase H cleavage within the stem near the core initiator", "setting": "[1]", "value": "able to strand invade"}]}, {"substance": "AGGCAGAGGTTAAGGGTCGA (antisense dA*dG*dG*dC*dA*dG*dA*dG*dG*dT*dT*dA*dA*dG*dG*dG*dT*dC*dG*dA) [HBV66]", "values": [{"measurement": "total RNA cleavage by RNase H", "setting": "[1]", "value": "activate RNase H cleavage of the transcript more effectively than the mixture of 10mer arms"}, {"measurement": "double cleavage (twice cleaved product) by RNase H on both sides of the epsilon stem", "setting": "[1]", "value": "greater after 10 minutes than in the presence of HBV68"}]}, {"substance": "AGGCAGAGGTTAAGGGTCGATGTCCATGCC (phosphorothioate, further chemistry not given here) [HBV91]", "values": [{"measurement": "strand invasion of the RNA stem evidenced by RNase H cleavage within the stem near the core initiator", "setting": "[1]", "value": "able to strand invade"}]}, {"substance": "GACAUGAACAAGAGAUGAUUTAAGGGTCGA (RNA letters in 5' part, chemistry not given here) [HBV89M]", "values": [{"measurement": "cleavage efficiency", "setting": "[1]; 100 nM oligonucleotide, RNase H", "value": 32, "unit": "%"}]}, {"substance": "GAGGTGAAAAAGTTGCATGG (antisense dG*dA*dG*dG*dT*dG*dA*dA*dA*dA*dA*dG*dT*dT*dG*dC*dA*dT*dG*dG) [HBV48]", "values": [{"measurement": "IC50", "setting": "[2]", "value": 700, "unit": "nM"}]}, {"substance": "GATAGGGGCATTTGGTGcTC (antisense dG*dA*dT*dA*dG*dG*dG*dG*dC*dA*dT*dT*dT*dG*dG*dT*dG*dC*dT*dC) [HBVpol-C, single mismatch derivative of HBVpol-2]", "values": [{"measurement": "antisense activity of mismatched oligonucleotides compared to parent HBVpol-2", "setting": "[3]", "value": "varying degrees of reduction in activity"}]}, {"substance": "GATAGGGGCcTTTGGTGGTC (antisense dG*dA*dT*dA*dG*dG*dG*dG*dC*dC*dT*dT*dT*dG*dG*dT*dG*dG*dT*dC) [HBVpol-B, single mismatch derivative of HBVpol-2]", "values": [{"measurement": "antisense activity of mismatched oligonucleotides compared to parent HBVpol-2", "setting": "[3]", "value": "varying degrees of reduction in activity"}]}, {"substance": "GAcAGGGGCATTTGGTGGTC (antisense dG*dA*dC*dA*dG*dG*dG*dG*dC*dA*dT*dT*dT*dG*dG*dT*dG*dG*dT*dC) [HBVpol-A, single mismatch derivative of HBVpol-2]", "values": [{"measurement": "antisense activity of mismatched oligonucleotides compared to parent HBVpol-2", "setting": "[3]", "value": "varying degrees of reduction in activity"}]}, {"substance": "GAcAGGGGCcTTTGGTGcTC (antisense dG*dA*dC*dA*dG*dG*dG*dG*dC*dC*dT*dT*dT*dG*dG*dT*dG*dC*dT*dC) [HBVpol-D, three mismatches, derivative of HBVpol-2, reference compound]", "values": [{"measurement": "antisense activity of mismatched oligonucleotides compared to parent HBVpol-2", "setting": "[3]", "value": "abrogated antisense activity"}]}, {"substance": "TAAGGGTCGAAGGCAGAGGT (antisense dT*dA*dA*dG*dG*dG*dT*dC*dG*dA*dA*dG*dG*dC*dA*dG*dA*dG*dG*dT) [HBV68]", "values": [{"measurement": "total RNA cleavage by RNase H", "setting": "[1]", "value": "activate RNase H cleavage of the transcript more effectively than the mixture of 10mer arms"}]}, {"substance": "TATAAGGGTCGAAGGCAGAGGTGA (antisense dT*dA*dT*dA*dA*dG*dG*dG*dT*dC*dG*dA*dA*dG*dG*dC*dA*dG*dA*dG*dG*dT*dG*dA) [HBV79]", "values": [{"measurement": "total RNA cleavage by RNase H", "setting": "[1]", "value": "equal"}, {"measurement": "double cleavage (twice cleaved product) by RNase H on both sides of the epsilon stem", "setting": "[1]", "value": "efficiently activate RNase H cleavage on both sides of the stem after only 1.5 minutes"}]}, {"substance": "TCGATGTCCATGCCCCAAAG (phosphorothioate, further chemistry not given here) [HBV4]", "values": [{"measurement": "IC50", "setting": "[2]", "value": 1200, "unit": "nM"}]}]}
